Laboratory results: patent US10508085B2, “Compounds and methods for IDO and TDO modulation, and indications therefor” (Plexxikon Inc., priority 2016, dated 2019)
Where two headings read alike, the source gives them in different places.

Columns and labels:
[1] = molecular target: T1, Human Tryptophan 2,3-dioxygenase (TDO) (Homo sapiens, UniProt P48775); assay: Human TDO enzymatic assay (kynurenine level); format: biochemical; conditions: 1 nM TDO, 350 μM L-Trp; geometric mean; read-out: TDO GMean: IC50 (μM) (Biochemical Assay)
T1 construct: His tag (N); made in house; host or cells: E. coli
T1 sequence (P48775 whole entry): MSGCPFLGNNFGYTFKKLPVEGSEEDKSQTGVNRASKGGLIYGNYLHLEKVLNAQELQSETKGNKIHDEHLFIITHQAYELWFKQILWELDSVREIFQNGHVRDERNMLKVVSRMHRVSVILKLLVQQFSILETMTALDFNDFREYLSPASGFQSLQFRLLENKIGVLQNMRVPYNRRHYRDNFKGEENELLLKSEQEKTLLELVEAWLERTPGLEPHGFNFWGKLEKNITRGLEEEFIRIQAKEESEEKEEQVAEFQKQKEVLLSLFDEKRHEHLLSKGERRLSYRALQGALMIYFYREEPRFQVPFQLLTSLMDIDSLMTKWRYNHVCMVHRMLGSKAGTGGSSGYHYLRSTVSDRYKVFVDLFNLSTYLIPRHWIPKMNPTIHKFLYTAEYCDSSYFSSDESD
How it was run: (§1)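 Kynurenine formed is measured after TCA quench and 50 °C hydrolysis, with % inhibition against full-reaction and no-enzyme controls (5% DMSO). IDO: 6 nM enzyme, 10 μM L-Trp, 5 μM methylene blue, 20 min; TDO: 1 nM, 350 μM L-Trp, 0.4 μM methylene blue, 70 min; both pH 6.5, room temp, E. coli-expressed His-tagged.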

[2] = molecular target: T2, human IDO (IDO1-expressing HEK293 cells) (Homo sapiens, UniProt P14902); assay: Cell based kynurenine assay, IDO1-expressing HEK293 cell clones; conditions: IDO1-expressing HEK293 cells, geometric mean, read-out: HEK293 IDO1 Kynurenine GMean IC50 (μM) (Cellular Assay)
T2 construct: expressed in transfected cells
T2 sequence (P14902 whole entry): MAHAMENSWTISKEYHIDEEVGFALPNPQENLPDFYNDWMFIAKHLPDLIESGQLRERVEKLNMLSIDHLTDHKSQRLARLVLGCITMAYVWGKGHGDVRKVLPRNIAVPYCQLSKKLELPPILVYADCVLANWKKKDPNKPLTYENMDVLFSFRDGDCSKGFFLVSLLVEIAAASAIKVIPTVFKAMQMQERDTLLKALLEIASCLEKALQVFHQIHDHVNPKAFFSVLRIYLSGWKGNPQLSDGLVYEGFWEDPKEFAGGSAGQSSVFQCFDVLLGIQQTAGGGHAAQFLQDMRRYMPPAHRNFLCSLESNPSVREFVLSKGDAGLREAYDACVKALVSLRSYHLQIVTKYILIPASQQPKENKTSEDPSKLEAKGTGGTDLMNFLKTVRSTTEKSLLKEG
How it was run: (§2)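 Kynurenine in culture supernatant read after 24 h compound exposure of HEK293 cells stably expressing human IDO1 or TDO. IC50 from nonlinear regression of % inhibition relative to 0.2% DMSO cell (high) and media-only (low) controls.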

[3] = molecular target: T3, Human Indoleamine 2,3-dioxygenase (IDO) (Homo sapiens, UniProt P14902); assay: Human IDO enzymatic assay (kynurenine level); format: biochemical; conditions: 6 nM IDO, 10 μM L-Trp; geometric mean; read-out: IDO1 GMean: IC50 (μM) (Biochemical Assay)
T3 construct: His tag (N); made in house; host or cells: E. coli
T3 sequence (P14902 whole entry): as above
How it was run: as §1

[4] = molecular target: T4, human TDO (TDO-expressing HEK293 cells) (Homo sapiens, UniProt P48775); assay: Cell based kynurenine assay, TDO-expressing HEK293 cell clones; conditions: TDO-expressing HEK293 cells, geometric mean, read-out: HEK293 TDO Kynurenine GMean IC50 (μM) (Cellular Assay)
T4 construct: expressed in transfected cells
T4 sequence (P48775 whole entry): as the sequence (P48775 whole entry) above
How it was run: as §2

Row | Structure (SMILES) | IC50 [1] [µM] | IC50 ([2]; 24 hours incubation) [µM] | IC50 [3] [µM] | IC50 ([4]; 24 hours incubation) [µM] | IC50 ([2]; 24 hours) [µM] | IC50 ([4]; 24 hours) [µM]
1 | CC(C)(C1CCN(C(=O)NC2CCCC2)CC1)C(O)c1cc(Cl)cc2cn[nH]c12 (stereo not shown) [Compound P-0316, 4-(1-(5-chloro-1H-indazol-7-yl)-1-hydroxy-2-methylpropan-2-yl)-N-cyclopentylpiperidine-1-carboxamide] | 0.0001 to 10 | 0.0001 to 10 | 0.0001 to 10 | 0.0001 to 10 | – | –
2 | OC1(c2c(F)c(Cl)c(F)c3cn[nH]c23)CC2(C1)C1CCCC2CCC1 (stereo not shown) [Compound P-0249, (1s,5s)-3′-(5-chloro-4,6-difluoro-1H-indazol-7-yl)spiro[bicyclo[3.3.1]nonane-9,1′-cyclobutan]-3′-ol] | 0.0001 to 10 | 0.0001 to 10 | 0.0001 to 10 | > 10 | – | –
3 | CC(C)(C1CCN(C(=O)CO)CC1)C(O)c1cc(Cl)cc2cn[nH]c12 (stereo not shown) [Compound P-0461, 1-(4-(1-(5-chloro-1H-indazol-7-yl)-1-hydroxy-2-methylpropan-2-yl)piperidin-1-yl)-2-hydroxyethan-1-one] | 0.0001 to 10 | – | 0.0001 to 10 | – | 0.0001 to 10 | 0.0001 to 10
4 | CC(C)(C1CCCCC1)C(O)c1cc(Cl)cc2cn[nH]c12 (stereo not shown) [Compound P-0008, 1-(5-chloro-1H-indazol-7-yl)-2-cyclohexyl-2-methylpropan-1-ol] | 0.0001 to 10 | 0.0001 to 10 | 0.0001 to 10 | 0.0001 to 10 | – | –
5 | O=C(NCC(F)(F)F)N1CCC(C(F)(F)C(O)c2cc(Cl)cc3cn[nH]c23)CC1 (stereo not shown) [Compound P-0333, 4-(2-(5-chloro-1H-indazol-7-yl)-1,1-difluoro-2-hydroxyethyl)-N-(2,2,2-trifluoroethyl) piperidine-1-carboxamide] | 0.0001 to 10 | 0.0001 to 10 | 0.0001 to 10 | 0.0001 to 10 | – | –
6 | CC(C)(C(O)c1cc(Cl)cc2cn[nH]c12)N1CCCC1 (stereo not shown) [Compound P-0231, 1-(5-chloro-1H-indazol-7-yl)-2-methyl-2-(pyrrolidin-1-yl)propan-1-ol] | 10 to 100 | > 10 | 100 to 200 | > 10 | – | –
7 | CC1(C(O)c2cc(Cl)cc3cn[nH]c23)CCN(S(C)(=O)=O)CC1 (stereo not shown) [Compound P-0286, (5-chloro-1H-indazol-7-yl)(4-methyl-1-(methylsulfonyl)piperidin-4-yl)methanol] | 0.0001 to 10 | 0.0001 to 10 | 0.0001 to 10 | 0.0001 to 10 | – | –
8 | O=C(O)C12CCC(C(O)c3cc(Cl)cc4cn[nH]c34)(CC1)CC2 (stereo not shown) [Compound P-0327, 4-((5-chloro-1H-indazol-7-yl)(hydroxy)methyl)bicyclo [2.2.2]octane-1-carboxylic acid] | 0.0001 to 10 | 0.0001 to 10 | 0.0001 to 10 | 0.0001 to 10 | – | –
9 | Cc1ccc2cn[nH]c2c1C(O)C1(C(F)(F)F)CCCC1 (stereo not shown) [Compound P-0049, (6-methyl-1H-indazol-7-yl)(1-(trifluoromethyl)cyclopentyl)methanol] | 0.0001 to 10 | 0.0001 to 10 | 0.0001 to 10 | 0.0001 to 10 | – | –
10 | CCS(=O)(=O)N1CCC(C(C)(C)C(O)c2cc(Cl)cc3cn[nH]c23)CC1 (stereo not shown) [Compound P-0304, 1-(5-chloro-1H-indazol-7-yl)-2-(1-(ethylsulfonyl)piperidin-4-yl)-2-methylpropan-1-ol] | 0.0001 to 10 | 0.0001 to 10 | 0.0001 to 10 | 0.0001 to 10 | – | –
11 | NC(=O)N1CCC(C(F)(F)C(O)c2cc(Cl)cc3cn[nH]c23)CC1 (stereo not shown) [Compound P-0144, 4-(2-(5-chloro-1H-indazol-7-yl)-1,1-difluoro-2-hydroxyethyl)piperidine-1-carboxamide] | 0.0001 to 10 | 0.0001 to 10 | 0.0001 to 10 | 0.0001 to 10 | – | –
12 | CC(C)(C1CCN(C(=O)NC2CCNCC2)CC1)C(O)c1cc(Cl)cc2cn[nH]c12 (stereo not shown) [Compound P-0453, 4-(1-(5-chloro-1H-indazol-7-yl)-1-hydroxy-2-methylpropan-2-yl)-N-(piperidin-4-yl)piperidine-1-carboxamide] | 0.0001 to 10 | – | 0.0001 to 10 | – | > 10 | > 10
13 | Cc1cc(N2CC3CCC(C2)N3S(C)(=O)=O)c2[nH]ncc2c1 [Compound P-0094, 5-methyl-7-(8-(methylsulfonyl)-3,8-diazabicyclo[3.2.1]octan-3-yl)-1H-indazole] | 0.0001 to 10 | > 10 | 0.0001 to 10 | 0.0001 to 10 | – | –
